Assays:
citrated human blood = assay: NATEM (ROTEM thromboelastometry, blood clot formation); details: 100 μM, 2% v/v DMSO, 15 min preincubation
Procedure: (§1) 1. Materials and Instruments
Star-TEM reagent (TEM International GmbH, cat. #000503-01), Dimethyl sulfoxide (Sigma-Aldrich, cat. #D2438), Cleancle normal saline (JW Pharm), and ROTEM® delta system (TEM International GmbH).
Human blood research was experimented after approval from the Yonsei University Institutional Review Board (IRB) in accordance with the Life Ethics and Safety Act.
Blood samples for NATEM were kept at room temperature, and all NATEM analyses were performed at 37° C. NATEM was carried out using 300 μL of citrated human blood preincubating with test compounds (100 μM, 2% v/v DMSO) for 15 minutes in cuvette and […] with Star-TEM reagent according to the manufacturer's manual (ROTEM; Tem International GmbH, Munich, Germany). After addition of the star-TEM reagent, cuvettes were measured by ROTEM® delta system. Blood clot formation was evaluated.
The obtained parameters were time to clot initiation (Clotting Time, CT), time to clot formation, α angle for clot growth kinetics (initial rate of fibrin polymerization), amplitude (firmness) at 10 minutes, maximum clot firmness, and maximum lysis.

[1] = system: platelet-rich plasma (PRP); assay: Recalcification time of rat platelet-rich plasma; details: 30 μM, vs 2% DMSO control
Procedure: Example 5: Recalcification Time
as §1
Isoflurane (Hana Pharm, cat. #9008), Isotonic Sodium Chloride Injection (Daihan Pharm, cat. #331), Citrate-dextrose solution (Sigma-Aldrich, cat. #C3821), Calcium chloride solution (Sigma-Aldrich, cat. #21115), 22G Syringe 10 mL (Koreavaccine), Dimethyl sulfoxide (Sigma-Aldrich, cat. #D5879), Apixaban (AK scientific, cat. #X1060), 96 Well Cell Culture Plates (SPL Life Sciences, cat. #30096), Synergy H4 Hybrid Microplate Reader (BioTek), Combi R515 Multi-purpose Centrifuge (Hanil Scientific), BS-06 Shaking & Heating Baths (JEIO TECH), and PST-60HL-4 Plate Shaker-Thermostat (Bio-San)
Seven-week-old male SD Rat (ORIENT BIO.) were maintained under controlled conditions of temperature (22±2° C.) and 12-h light/12-h dark cycle. Rats were housed in the pathogen-free facility of the Laboratory Animal Research Center in Ildong Pharmaceutical Co. Ltd. All procedures on animals were conducted in accordance with the relevant national regulatory guidelines and individual experiments approved by the Ildong Pharmaceutical Co. Ltd., Institutional Animal Care and Use Committee (IACUC) (approval No.: A2106-3, 2108-4).
The ability of test compounds to interfere with plasma coagulation, in the presence of platelets, was analyzing by measuring the recalcification time of rat plasma. The blood of animals was collected into 15 mL tubes containing Citrate-dextrose solution (9:1 v/v) before performing the assays. For recalcification time, platelet-rich plasma (PRP) samples were obtained by centrifugation at 360×g for 10 minutes. And the PRP were preincubated for 5 minutes (37° C.). In a 96 well microplate, test compounds (2 μL) were treated in 98 μL of platelet rich plasma. After mixing with a pipette, it was incubated at 37° C. for 15 minutes. The reaction was started by addition of 200 μL of pre-warmed CaCl2) (16 mM). Immediately, put the microplate in a microplate reader and the signals were measured by the following steps.
(1) 405 nm wavelength absorbance signals were recorded in every 10 seconds at 37° C.
(2) Basal absorbance signals were recorded for 0 second.
The signal variance of each of the test compounds was obtained by the following step.
(1) Background signals (t=O) were subtracted from recording values, and the resulting values were converted to change values. The values at 0 second were set to be zero.
The retardation time of test compound were calculated by the following formula:
Retardation time (sec)=[log EC50 (test sample)−log EC50 (DMSO control)]
As described above, a DMSO control group is a group to which 2% DMSO was treated.
The assay result is shown in Table 5, where compounds (30 μM) having less than 20 seconds of retardation time are marked by ‘C’; the compounds (30 μM) having retardation time of 20 seconds or more to less than 50 seconds are marked by ‘B’; and the compounds (30 μM) having retardation time of 50 seconds or more are marked by ‘A’.

human ANO6 = target: T1, human ANO6 (Homo sapiens, UniProt Q4KMQ2); assay: LACT C2 assay (phosphatidylserine scramblase function assay); assay type: cell-based; details: test compound 100 nM, FRT cells expressing human ANO6, 10 μM ionomycin, read-out: Inhibition Level 100 nM
T1 construct: expressed in transfected cells
T1 sequence (Q4KMQ2 1-931 isoform Q4KMQ2-2): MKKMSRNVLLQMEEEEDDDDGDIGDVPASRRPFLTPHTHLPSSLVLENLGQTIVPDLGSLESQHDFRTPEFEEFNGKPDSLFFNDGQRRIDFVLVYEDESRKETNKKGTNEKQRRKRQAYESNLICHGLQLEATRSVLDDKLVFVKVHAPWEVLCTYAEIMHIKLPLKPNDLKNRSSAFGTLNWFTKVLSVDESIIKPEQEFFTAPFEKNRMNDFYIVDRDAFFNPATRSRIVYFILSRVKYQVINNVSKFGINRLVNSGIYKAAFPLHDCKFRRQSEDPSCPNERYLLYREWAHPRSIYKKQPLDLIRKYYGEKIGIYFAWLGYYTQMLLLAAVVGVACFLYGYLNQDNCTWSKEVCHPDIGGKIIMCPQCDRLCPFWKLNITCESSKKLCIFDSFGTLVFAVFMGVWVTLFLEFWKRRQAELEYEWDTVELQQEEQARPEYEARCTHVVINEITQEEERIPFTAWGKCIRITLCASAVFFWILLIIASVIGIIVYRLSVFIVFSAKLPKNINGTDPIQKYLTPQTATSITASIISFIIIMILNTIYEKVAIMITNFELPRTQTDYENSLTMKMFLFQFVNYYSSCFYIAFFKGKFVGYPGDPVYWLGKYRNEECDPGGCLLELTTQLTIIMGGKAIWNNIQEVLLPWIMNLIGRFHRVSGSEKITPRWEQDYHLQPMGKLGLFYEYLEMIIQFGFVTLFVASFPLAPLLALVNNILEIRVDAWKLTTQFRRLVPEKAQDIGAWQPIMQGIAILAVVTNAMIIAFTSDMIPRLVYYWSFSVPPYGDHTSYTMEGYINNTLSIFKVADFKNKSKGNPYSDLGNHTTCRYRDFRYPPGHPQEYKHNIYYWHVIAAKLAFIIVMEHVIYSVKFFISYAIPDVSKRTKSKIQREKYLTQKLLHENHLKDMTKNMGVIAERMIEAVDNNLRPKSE
How it was run: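 FRT cells stably expressing human ANO6 were pretreated with compound (1% DMSO) for 10 min, then stimulated with 10 μM ionomycin for 10 min. Surface phosphatidylserine was stained with 500 nM Lact-C2-GFP and quantified by imaging. Inhibition was scaled between unstimulated (100%) and ionomycin-only (0%) controls, averaged over triplicates.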

O=C(N[C@@H]1C[C@H]1c1ccccc1)c1cccc(Nc2ccc(-c3ccncn3)cc2)c1 [Compound 174, N-((1R,2S)-2-phenylcyclopropyl)-3-((4-(pyrimidin-4-yl)phenyl)amino)benzamide]
A10, amplitude (firmness) at 10 minutes (citrated human blood): 45 mm
CFT, clot formation time (citrated human blood): 180 s
CT, clotting time (citrated human blood): 665 s
MCF, maximum clot firmness (citrated human blood): 56 mm
ML, maximum lysis (citrated human blood): 2%
α, α-angle (citrated human blood): 57 °
Inhibition Level (retardation time, recalcification time) [1]: B (the compounds (30 μM) having retardation time of 20 seconds or more to less than 50 seconds)
inhibition at 0.1 µM (human ANO6): ≥ 60%

— patent US20230080054A1 (ILDONG PHARMACEUTICAL CO., LTD., priority 2021, published 2023)
